For orientation: IC50 means the concentration needed to halve the response being measured.

Assay [1] addresses T1, calcium channel (3H-nitrendipine binding, heart membranes) (Oryctolagus cuniculus, UniProt P15381).
T1 construct: from tissue; host or cells: rabbit heart (crude membrane pellet)
The experiment in a line: Assay for inhibition of nitrendipine binding (3H-nitrendipine, rabbit heart membranes). Here is the method:
Female, New Zealand white rabbits (1-2 kg) are sacrificed by cervical dislocation, and the heart is immediately removed, cleaned and chopped into small pieces. The tissue is homogenized in 5×volume of 0.05M Hepes buffer, pH 7.4. The homogenate is centrifuged at 4000 g for 10 minutes, and the supernatant is re-centrifuged at 42,000 g for 90 minutes. The resulting membrane pellet is resuspended (0.7 ml/g weight) in 0.05M Hepes, pH 7.4 and stored at […] until used. Each tube of the binding assay contains ^3H-nitrendipine (0.05-0.50 nM), buffer, membranes (0.10 ml ), and test compound in a total volume of 1.0 ml . After 90 minutes at 4° C., the bound nitrendipine is separated from the unbound by filtration on Whatman GF/C filters. After rinsing, the filters are dried and counted in a liquid scintillation counter.
Non-specifically bound ^3H-nitrendipine (i.e., the amount bound in the presence of excess unlabelled nitrendipine) is subtracted from the total bound to obtain specifically-bound radiolabeled nitrendipine. The amount of specifically-bound nitrendipine in the presence of a test compound is compared to the amount bound in the absence of the compound. A percent displacement (or inhibition) can then be obtained.

The test system of assay [2] is trachea (trachealis muscle tissue). The experiment in a line: Test for inhibition of calcium-dependent smooth muscle contraction (KCl-challenged tracheal rings). To be noted: Canis lupus familiaris, 10 min; dog tracheal rings, 50 mM KCl challenge, test compound added for 10 minutes. The format is cell-based. Here is the method:
The trachea and the aorta from dogs sacrificed by excess KCl injection are stored overnight at 4° C. in oxygenated Krebs-Henseleit buffer. Tracheal rings, one cartilage segment wide (5-10 mm), are cut starting from the bronchial end. Rings of aorta tissue of the same width are also prepared. After cutting the cartilage, the trachealis muscle tissue and the aorta tissue are suspended in oxygenated Krebs-Henseleit buffer at 37° C. in a 25 ml tissue bath. After a 60-minute equilibration period, the tissues are challenged with 10 μM carbachol. After 5 minutes, the tissues are rinsed and allowed to rest 50 minutes. The tissues are then challenged with 50 mM KCl and, after 30 minutes, the contractions are quantitated. The tissues are then rinsed and re-equilibrated for 50 minutes. Test compounds are then added for 10 minutes, and the tissue is rechallenged with 50 mM KCl. After 30 minutes, the contraction is recorded and used to determine the % inhibition of control. The percent inhibition of smooth muscle contraction is calculated as follows from response data before and after drug treatment:
% inhibition=100−100×peak response after drug treatment/peak response before drug treatment

Setting [3] is: 3H-nitrendipine, compounds of Formula IIa (Table 2).
Setting [4] is: 3H-nitrendipine 0.05-0.50 nM, 90 minutes at 4° C., compounds of Formula I (Table 1).

T1 sequence (P15381 whole entry, other chains not shown): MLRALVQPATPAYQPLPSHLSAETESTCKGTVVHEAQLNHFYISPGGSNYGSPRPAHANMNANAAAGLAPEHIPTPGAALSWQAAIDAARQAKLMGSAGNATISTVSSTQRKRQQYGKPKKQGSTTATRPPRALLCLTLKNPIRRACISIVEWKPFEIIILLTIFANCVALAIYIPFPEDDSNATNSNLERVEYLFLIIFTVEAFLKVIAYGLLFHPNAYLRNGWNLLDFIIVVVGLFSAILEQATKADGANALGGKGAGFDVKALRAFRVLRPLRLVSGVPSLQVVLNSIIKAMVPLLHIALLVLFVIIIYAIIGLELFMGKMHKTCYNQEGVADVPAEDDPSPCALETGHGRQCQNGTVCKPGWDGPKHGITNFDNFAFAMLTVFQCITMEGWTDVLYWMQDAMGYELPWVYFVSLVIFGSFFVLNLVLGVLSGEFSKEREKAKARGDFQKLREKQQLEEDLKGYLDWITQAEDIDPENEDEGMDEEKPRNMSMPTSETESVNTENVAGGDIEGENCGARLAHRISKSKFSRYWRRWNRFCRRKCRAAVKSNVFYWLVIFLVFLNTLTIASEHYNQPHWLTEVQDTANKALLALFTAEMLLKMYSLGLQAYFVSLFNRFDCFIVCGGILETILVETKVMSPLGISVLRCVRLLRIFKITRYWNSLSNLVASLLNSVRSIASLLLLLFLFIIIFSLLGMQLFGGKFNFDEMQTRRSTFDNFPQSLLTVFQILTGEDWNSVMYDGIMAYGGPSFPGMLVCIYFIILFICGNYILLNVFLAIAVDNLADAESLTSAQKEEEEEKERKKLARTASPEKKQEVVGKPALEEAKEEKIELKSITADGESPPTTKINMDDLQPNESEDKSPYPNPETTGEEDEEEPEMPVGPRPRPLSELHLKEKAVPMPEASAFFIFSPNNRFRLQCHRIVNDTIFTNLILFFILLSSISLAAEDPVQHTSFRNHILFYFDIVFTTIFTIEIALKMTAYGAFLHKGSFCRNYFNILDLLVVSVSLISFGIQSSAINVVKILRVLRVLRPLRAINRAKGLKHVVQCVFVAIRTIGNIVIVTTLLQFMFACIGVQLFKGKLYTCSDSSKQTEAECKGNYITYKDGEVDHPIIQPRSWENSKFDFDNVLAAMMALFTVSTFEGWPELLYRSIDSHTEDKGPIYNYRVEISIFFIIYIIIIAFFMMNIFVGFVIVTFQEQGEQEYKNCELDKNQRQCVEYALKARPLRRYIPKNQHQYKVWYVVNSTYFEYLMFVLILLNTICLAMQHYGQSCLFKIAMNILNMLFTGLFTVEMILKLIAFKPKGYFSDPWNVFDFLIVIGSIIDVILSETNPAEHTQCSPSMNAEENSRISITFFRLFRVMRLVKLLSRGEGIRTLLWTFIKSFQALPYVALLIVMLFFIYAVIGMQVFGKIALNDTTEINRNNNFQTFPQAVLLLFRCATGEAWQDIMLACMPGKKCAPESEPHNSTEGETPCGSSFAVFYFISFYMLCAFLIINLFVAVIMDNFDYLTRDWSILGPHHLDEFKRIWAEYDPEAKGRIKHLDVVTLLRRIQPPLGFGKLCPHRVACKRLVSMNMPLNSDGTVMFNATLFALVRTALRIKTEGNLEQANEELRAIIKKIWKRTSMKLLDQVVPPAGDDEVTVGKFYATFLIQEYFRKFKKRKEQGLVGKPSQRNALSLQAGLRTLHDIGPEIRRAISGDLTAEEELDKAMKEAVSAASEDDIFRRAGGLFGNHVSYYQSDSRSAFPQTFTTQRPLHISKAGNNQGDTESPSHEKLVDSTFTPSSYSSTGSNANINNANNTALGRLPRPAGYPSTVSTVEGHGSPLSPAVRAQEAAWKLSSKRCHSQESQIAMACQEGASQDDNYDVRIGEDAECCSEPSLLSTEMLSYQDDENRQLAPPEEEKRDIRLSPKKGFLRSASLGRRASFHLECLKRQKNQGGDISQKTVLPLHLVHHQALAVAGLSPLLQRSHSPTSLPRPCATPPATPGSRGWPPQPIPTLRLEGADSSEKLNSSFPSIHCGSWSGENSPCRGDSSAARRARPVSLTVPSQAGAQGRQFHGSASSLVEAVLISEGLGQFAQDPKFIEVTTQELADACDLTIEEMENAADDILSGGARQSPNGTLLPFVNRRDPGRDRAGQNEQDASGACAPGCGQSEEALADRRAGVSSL
T1 sequence (P13806 27-960 partner limits assumed, other chains not shown): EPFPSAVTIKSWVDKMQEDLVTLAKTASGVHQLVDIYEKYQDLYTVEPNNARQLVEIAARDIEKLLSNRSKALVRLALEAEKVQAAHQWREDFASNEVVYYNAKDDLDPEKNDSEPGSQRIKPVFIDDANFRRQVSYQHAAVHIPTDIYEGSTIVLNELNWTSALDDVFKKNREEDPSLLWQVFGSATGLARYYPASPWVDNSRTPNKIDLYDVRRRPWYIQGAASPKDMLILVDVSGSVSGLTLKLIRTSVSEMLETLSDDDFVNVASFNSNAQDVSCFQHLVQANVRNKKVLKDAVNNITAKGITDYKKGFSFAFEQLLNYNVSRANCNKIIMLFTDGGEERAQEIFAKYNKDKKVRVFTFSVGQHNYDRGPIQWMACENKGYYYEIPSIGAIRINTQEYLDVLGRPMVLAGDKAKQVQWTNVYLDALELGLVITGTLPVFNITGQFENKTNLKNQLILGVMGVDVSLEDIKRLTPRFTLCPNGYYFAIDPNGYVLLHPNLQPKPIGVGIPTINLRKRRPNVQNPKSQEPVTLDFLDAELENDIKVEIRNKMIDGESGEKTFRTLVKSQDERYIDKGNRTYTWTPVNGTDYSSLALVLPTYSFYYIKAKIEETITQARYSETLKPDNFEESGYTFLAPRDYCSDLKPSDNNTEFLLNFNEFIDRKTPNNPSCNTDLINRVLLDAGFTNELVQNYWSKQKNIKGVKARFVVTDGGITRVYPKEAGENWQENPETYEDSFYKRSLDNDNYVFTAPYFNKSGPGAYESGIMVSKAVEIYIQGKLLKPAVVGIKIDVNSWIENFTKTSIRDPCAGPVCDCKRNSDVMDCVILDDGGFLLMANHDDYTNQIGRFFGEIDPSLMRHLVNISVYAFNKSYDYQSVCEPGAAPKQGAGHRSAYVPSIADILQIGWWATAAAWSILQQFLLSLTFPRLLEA
T1 sequence (P13806 961-1106 partner limits assumed, other chains not shown): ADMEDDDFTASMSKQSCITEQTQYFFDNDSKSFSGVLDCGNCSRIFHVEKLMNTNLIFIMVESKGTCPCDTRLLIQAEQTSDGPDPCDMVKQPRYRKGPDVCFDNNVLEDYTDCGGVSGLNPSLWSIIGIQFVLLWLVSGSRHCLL

Take `CC1=C(C(=O)OCCOC(=O)c2ccccc2)C(c2c(F)cccc2Cl)C2=C(COCCS2(=O)=O)N1` (stereo not drawn) [Compound 10, 5H-[1,4]oxathiepino[6,5-b]pyridine-8-carboxylic acid, 9-(2-chloro-6-fluorophenyl)-2,3,6,9-tetrahydro-7-methyl-, 2-(benzoyloxy)ethyl ester, 1,1-dioxide]: the half-maximal inhibitory concentration (IC50) in assay [1] (setting [3]) is 0.017 µM.
Consider `CC1=C(C(=O)OCCN(C)Cc2ccccc2)C(c2cccc([N+](=O)[O-])c2)C2=C(COCCS2(=O)=O)N1` (stereo not drawn) [Compound 1, 5H-[1,4]oxathiepino[6,5-b]pyridine-8-carboxylic acid, 2,3,6,9-tetrahydro-7-methyl-9-(3-nitrophenyl), 2-[methyl(phenylmethyl)amino]ethyl ester, 1,1-dioxide], for which the IC50 in assay [1] (setting [4]) is 0.039 µM.
The same measure, in the same setting: under `COC(=O)C1=C(C)NC2=C(C1c1cccc(Cl)c1)S(=O)(=O)CCOC2` (stereo not drawn) [Compound 6, 5H-[1,4]oxathiepino[6,5-b]pyridine-8-carboxylic acid, 9-(3-chlorophenyl)-2,3,6,9-tetrahydro-7-methyl, methyl ester, 1,1-dioxide] stands 0.021 µM.
As for `CC1=C(C(=O)OCCCOC(=O)c2ccccc2)C(c2ccccc2Cl)C2=C(COCCS2(=O)=O)N1` (stereo not drawn) [Compound 16, 5H-[1,4]oxathiepino[6,5-b]pyridine-8-carboxylic acid, 9-(2-chlorophenyl)-2,3,6,9-tetrahydro-7-methyl-, 3-(benzoyloxy)propyl ester, 1,1-dioxide], in assay [1] (setting [3]), the IC50 worked out at 0.04 µM.
The same measure, in the same setting: the result for `CC1=C(C(=O)OCc2oc(=O)oc2-c2ccccc2)C(c2cccc(Cl)c2Cl)C2=C(COCCS2(=O)=O)N1` (stereo not drawn) [Compound 18, 5H-[1,4]oxathiepino[6,5-b]pyridine-8-carboxylic acid, 9-(2,3-dichlorophenyl)-2,3,6,9-tetrahydro-7-methyl-, (2-oxo-5-phenyl-1,3-dioxol-4-yl)methyl ester, 1,1-dioxide] reads 0.021 µM.
On to `CC1=C(C(=O)OCCN(C)Cc2ccccc2)C(c2cccc(Cl)c2)C2=C(COCCS2(=O)=O)N1` (stereo not drawn) [Compound 7, 5H-[1,4]oxathiepino[6,5-b]pyridine-8-carboxylic acid, 9-(3-chlorophenyl)-2,3,6,9-tetrahydro-7-methyl, 2-[methyl(phenylmethyl)amino]ethyl ester, 1,1-dioxide], for which, in assay [1] (setting [4]), the IC50 was 0.013 µM.
Consider `CC1=C(C(=O)OCCO)C(c2ccccc2Cl)C2=C(COCCS2(=O)=O)N1` (stereo not drawn) [Compound 15, 5H-[1,4]oxathiepino[6,5-b]pyridine-8-carboxylic acid, 9-(2-chlorophenyl)-2,3,6,9-tetrahydro-7-methyl-, 2-hydroxyethyl ester, 1,1-dioxide], for which the IC50 in assay [1] (setting [3]) was determined as 20 µM.
Consider `COC(=O)C1=C(C)NC2=C(C1c1ccccc1Cl)S(=O)(=O)CCOC2` (stereo not drawn) [Compound 2, 5H-[1,4]oxathiepino[6,5-b]pyridine-8-carboxylic acid, 9-(2-chlorophenyl)-2,3,6,9-tetrahydro-7-methyl, methyl ester, 1,1-dioxide], for which the IC50 in assay [1] (setting [4]) worked out at 0.012 µM.
As to `CC1=C(C(=O)OCc2oc(=O)oc2C)C(c2cccc(Cl)c2Cl)C2=C(COCCS2(=O)=O)N1` (stereo not drawn) [Compound 19, 5H-[1,4]oxathiepino[6,5-b]pyridine-8-carboxylic acid, 9-(2,3-dichlorophenyl)-2,3,6,9-tetrahydro-7-methyl-, (5-methyl-2-oxo-1,3-dioxol4-yl)methyl ester, 1,1-dioxide], the IC50 in assay [1] (setting [3]) came out at 0.018 µM.
For the molecule `COC(=O)C1=C(C)NC2=C(C1c1ccccc1[N+](=O)[O-])S(=O)(=O)CCOC2` (stereo not drawn) [Compound 5, 5H-[1,4]oxathiepino[6,5-b]pyridine-8-carboxylic acid, 2,3,6,9-tetrahydro-7-methyl-9-(2-nitrophenyl), methyl ester, 1,1-dioxide], in assay [1] (setting [4]), the IC50 was found to be 0.034 µM.
`CC1=C(C(=O)OCCO)C(c2c(F)cccc2Cl)C2=C(COCCS2(=O)=O)N1` (stereo not drawn) [Compound 20]: the IC50 in assay [1] (setting [3]) is 4.36 µM.
As to `COC(=O)C1=C(C)NC2=C(C1c1cccc([N+](=O)[O-])c1)S(=O)(=O)CCOC2` (stereo not drawn) [Compound 4, 5H-[1,4]oxathiepino[6,5-b]pyridine-8-carboxylic acid, 2,3,6,9-tetrahydro-7-methyl-9-(3-nitrophenyl), methyl ester, 1,1-dioxide], the IC50 in assay [1] (setting [4]) came to 0.046 µM.
Turning to `CC(=O)OCCOC(=O)C1=C(C)NC2=C(C1c1c(F)cccc1Cl)S(=O)(=O)CCOC2` (stereo not drawn) [Compound 12, 5H-[1,4]oxathiepino[6,5-b]pyridine-8-carboxylic acid, 9-(2-chloro-6-fluorophenyl)-2,3,6,9-tetrahydro-7-methyl-, 2-(acetyloxy)ethyl ester, 1,1-dioxide], the half-inhibitory concentration (IC50) in assay [1] (setting [3]) is 0.582 µM.
Still for that read-out and setting: under `CC1=C(C(=O)OCCOC(=O)C(C)C)C(c2ccccc2Cl)C2=C(COCCS2(=O)=O)N1` (stereo not drawn) [Compound 17, 5H-[1,4]oxathiepino[6,5-b]pyridine-8-carboxylic acid, 9-(2-chlorophenyl)-2,3,6,9-tetrahydro-7-methyl-, 2-(2-methyl-1-oxopropoxy)ethyl ester, 1,1-dioxide] stands 0.036 µM; under `CC1=C(C(=O)OCCOC(=O)C2CCCCC2)C(c2c(F)cccc2Cl)C2=C(COCCS2(=O)=O)N1` (stereo not drawn) [Compound 11, 5H-[1,4]oxathiepino[6,5-b]pyridine-8-carboxylic acid, 9-(2-chloro-6-fluorophenyl)-2,3,6,9-tetrahydro-7-methyl-, 2-[(cyclohexylcarbonyl)oxy]ethyl ester, 1,1-dioxide], 0.096 µM; under `CC1=C(C(=O)OCCOC(=O)C(C)C)C(c2c(F)cccc2Cl)C2=C(COCCS2(=O)=O)N1` (stereo not drawn) [Compound 14, 5H-[1,4]oxathiepino[6,5-b]pyridine-8-carboxylic acid, 9-(2-chloro-6-fluorophenyl)-2,3,6,9-tetrahydro-7-methyl-, 2-(2-methyl-1-oxopropoxy)ethyl ester, 1,1-dioxide], 0.06 µM.
Take `CC1=C(C(=O)OCCN(C)Cc2ccccc2)C(c2ccccc2[N+](=O)[O-])C2=C(COCCS2(=O)=O)N1` (stereo not drawn) [Compound 8, 5H-[1,4]oxathiepino[6,5-b]pyridine-8-carboxylic acid, 2,3,6,9-tetrahydro-7-methyl-9-(2-nitrophenyl), 2-[methyl(phenylmethyl)amino]ethyl ester, 1,1-dioxide]: the IC50 in assay [1] (setting [4]) was found to be 0.086 µM.
Turning to `CC1=C(C(=O)OCCOC(=O)C2CC2)C(c2c(F)cccc2Cl)C2=C(COCCS2(=O)=O)N1` (stereo not drawn) [Compound 13, 5H-[1,4]oxathiepino[6,5-b]pyridine-8-carboxylic acid, 9-(2-chloro-6-fluorophenyl)-2,3,6,9-tetrahydro-7-methyl-, 2-[(cyclopropylcarbonyl)oxy]ethyl ester, 1,1-dioxide], the IC50 in assay [1] (setting [3]) was 0.418 µM.
The same measure, in the same setting: the result for `CC1=C(C(=O)OCCCO)C(c2ccccc2Cl)C2=C(COCCS2(=O)=O)N1` (stereo not drawn) [Compound 21] reads 0.56 µM.
In the case of `CC1=C(C(=O)OCCN(C)Cc2ccccc2)C(c2ccccc2Cl)C2=C(COCCS2(=O)=O)N1` (stereo not drawn) [Compound 3, 5H-[1,4]oxathiepino[6,5-b]pyridine-8-carboxylic acid, 9-(2-chlorophenyl)-2,3,6,9-tetrahydro-7-methyl, 2-[methyl(phenylmethyl)amino]ethyl ester, 1,1-dioxide], the IC50 in assay [1] (setting [4]) was found to be 0.129 µM; in assay [2], 0.055 µM.

(Values after patent US6476022B1, “Oxathiepino[6,5-b]dihydropyridines, and related compositions and methods” (Ortho-McNeil Pharmaceutical, Inc., priority 1999, dated 2002).)
